System: WT and Kvβ2−/− mice
Test: Arterial blood pressure (femoral artery catheter) during norepinephrine infusion
Assay type: in vivo, mouse
Settings: norepinephrine infusion 5 μg/kg·min−1
Source text: In vivo measurements of cardiac function and myocardial blood flow: Mice were anesthetized with 3% isoflurane and supplemental O2, administered (1 L·min^−1) in a small induction chamber. After induction, the mice were placed on a controlled heating table in a supine position. Anesthesia was maintained throughout the procedure by delivery of 1-2% isoflurane and supplemental O2 (0.5 L·min^−1). The extremities were secured to the surgical table by tape and a lubricated probe was inserted rectally to monitor body temperature. The chest, neck, and hind limb hair were then removed using a depilatory agent, the skin was rinsed with warm water, and the neck area was disinfected with 70% ethanol/betadine and an incision (10-15 mm) was made at the right side of the neck. […]
Measurements of cardiac function, myocardial perfusion, and arterial blood pressure were performed at baseline, after administration of hexamethonium (5 mg·kg^−1, i.v.), and following successive doses of norepinephrine (0.5, 1.0, 2.5, and 5.0 μg·kg^−1·min^−1; 3 min duration each dose, followed by 3-5 min washout). […] Left ventricular volume at end diastole (LVEDV) and end systole (LVESV), as well left ventricular internal diameter at end diastole (LVID,d) and end systole (LVID,s) were measured at steady state after drug infusions. […]

NC[C@H](O)c1ccc(O)c(O)c1 [norepinephrine]
time of infusion after which norepinephrine-induced elevation of pressure declined (Kvβ2−/− mice): ~40 s
increase in arterial blood pressure (WT animals): sustained for the duration of drug administration

From US20220226265A1, “METHODS OF CONTROLLING MYOCARDIAL BLOOD FLOW” (UNIVERSITY OF LOUISVILLE RESEARCH FOUNDATION, INC., priority 2021, published 2022)
